Data taken from patent US11767319B2, “Crystalline forms of a selective c-kit kinase inhibitor” (Third Harmonic Bio, Inc., priority 2020, dated 2023).
“Also recorded” adds a separate entry of the source.

Experiments:
Type in all cases: physicochemical
[1] = Competitive slurry experiments among anhydrates (IPA/IPAc); details: at RT and 50° C., IPA/IPAc slurries
Method: Competitive slurry experiments were performed in IPA/IPAc at RT/50° C. between anhydrates Form A of compound 1 and Form D of compound 1. Form A of compound 1 was added into each solvent to form a slurry at RT or 50° C. and was stirred for 2 h. The slurries were then filtered to obtain saturated solution. Around 10 mg each of Form A of compound 1 and Form D of compound 1 were added into each solution to form a mixed slurry at RT or 50° C. […] The formation of Form H^A of compound 1 is postulated to be caused by residual water in the solvents or due to ambient humidity (˜35% humidity during slurry experiments).

[2] = Slurry experiments in SGF; details: 37° C., 500 rpm
Method: About 200 mg of sodium chloride and about 100 mg Triton X-100 was weighted into a 100-mL volumetric flask. About 100 mL of purified water was added to the flask and the solution was sonicated until all solids were completely dissolved. 1 M HCl was added to adjust the pH to 1.8 and the solution was mixed well and the pH was checked with a pH meter.
Competitive slurry experiments were performed for Forms A, H^A, H^B, C and D in SGF. About 10 mg of each form was added into separate HPLC vials followed by addition of 1.0 mL SGF in order to form slurries. The slurries were heated to 37° C. and stirred at 500 rpm. After 2 h or 24 h, the samples were centrifuged and the solids were collected for XRPD testing.

Vacuum drying of Form C = details: dried under vacuum
Method: (§1) FIG. 1F depicts a set of XRPD patterns of Form C of compound 1, comparing the originally isolated form, material after DVS experiments and material after being dried under vacuum. […] Form G was also observed after vacuum drying of Form C.
Procedure A: Form C of compound 1 was dried under vacuum at 40° C. for about 2 hours. After drying Form G was recovered.

[3] = Dynamic Vapor Sorption (DVS) of Form C
Method: Approximately, 10 mg of sample was placed into a mesh vapor sorption balance pan and loaded into a DVS-1/DVS Intrinsic/DVS Advantage dynamic vapor sorption balance by Surface Measurement Systems. The sample was subjected to a ramping profile from 40-90% relative humidity (RH) at 10% increments, maintaining the sample at each step until a stable weight had been achieved (dm/dt 0.004%, minimum step length 30 min, maximum step length 500 min) at 25° C. After completion of the sorption cycle, the sample was dried using the same procedure to 0% RH and then a second sorption cycle back to 40% RH. Two cycles were performed. The weight change during the sorption/desorption cycles were plotted, allowing for the hygroscopic nature of the sample to be determined. XRPD analysis was then carried out on any solid retained.
FIGS. 1D and 1E depict DVS plots of Form C of compound 1. […] Below 20% RH, Form C experienced a mass loss of 8.6%, about equal to 2 equivalents of water.
as §1

[4] = Hydration mapping starting with Form A
Method: To establish the hydration map of compound 1, solutions with varying water activity (aw) were prepared and the aw was measured using a water activity meter. Table 13 below details the solvent systems investigated and their corresponding measured water activities.
23×20 mg of Form A of compound 1 was weighed into vials. 1 mL of solvent (see tables above) was added to each vial to form a slurry. After manual shaking for a few seconds, where solutions were observed, an additional ˜10 to 20 mg of solid was added to produce a slurry. Additional solid was added to the 2-MeTHF, water/2-MeTHF (1:99% v/v), acetone/water (aw of 0.92) and methanol/water (aw of 0.11) samples. All slurries were then agitated for 24 h at 25° C. After 24 h, aliquots of solid were isolated via centrifugal filtration and analysed by XRPD. The remaining slurries were agitated for a further 5 days (total of 6 days). The solids were isolated and analysed by XRPD. All identified forms were analysed by XRPD, TG/DSC and ^1H NMR (where sufficient material was available).

[5] = Form investigation in buffered media; details: for XRPD Pattern / pH (24 h): 24 h at 25° C.
Method: To investigate the polymorphic landscape of compound 1 in buffered systems, 5×20 mg of Form A slurries and 5×20 mg of amorphous slurries (amorphous material prepared using the method described in the above hydration mapping experiments) were prepared by adding 1 mL of buffer to each vial and the resulting slurries were agitated for 24 h at 25° C. The pH was measured post-buffer addition and after 24 h agitation. After 24 h, aliquots of solid were isolated via centrifugal filtration and analysed by XRPD.

[6] = Ethanol/hydrocarbon mixtures slurry study
Method: Using the methods described above for the Form A input and amorphous input experiments, 5×20 mg of Form A slurries and 5×20 mg of amorphous input slurries were prepared by adding 1 mL of solvent (see Table 16 below) to each vial and the resulting slurries were agitated for 24 h at 25° C. After 24 h, aliquots of solid were isolated via centrifugal filtration and analysed by XRPD.

[7] = Acetone/Water, aw 0.1363, 25° C.
[8] = Acetone/Water, aw 0.2621, 25° C.
[9] = Acetone/Water, aw 0.5455, 25° C.
[10] = EtOH/Heptane, aw 0.0300, 25° C.
[11] = Water/2-MeTHF, aw 0.5286, 25° C.

For `Cc1ccc(-c2noc([C@H]3C[C@@H]3F)n2)cc1NC(=O)c1cnc2ccccn12` [Form H^A, N-(5-(5-((1R,2S)-2-fluorocyclopropyl)-1,2,4-oxadiazol-3-yl)-2-methylphenyl)imidazo[1,2-a]pyridine-3-carboxamide], the relative thermodynamic stability [1] was “thermodynamically more stable than Form A”, the “XRPD at 2 h” value [2] was “No form change; also recorded: Form H^A” and the “XRPD at 2 h” value ([2]; listed as Form H^B) was “No form change; also recorded: Form H^B”. The “XRPD at 24 h” value [2] was “No form change; also recorded: Form H^A” and the “XRPD at 24 h” value ([2]; listed as Form H^B) was “No form change; also recorded: Form H^B”.
With `Cc1ccc(-c2noc([C@H]3C[C@@H]3F)n2)cc1NC(=O)c1cnc2ccccn12` [Form C, N-(5-(5-((1R,2S)-2-fluorocyclopropyl)-1,2,4-oxadiazol-3-yl)-2-methylphenyl)imidazo[1,2-a]pyridine-3-carboxamide] the “form after vacuum drying (XRPD)” value (Vacuum drying of Form C) was “Form G”, the “XRPD at 2 h” value [2] was “No form change; also recorded: Form C” and the “XRPD at 24 h” value [2] was “No form change; also recorded: Form C”. The “form after DVS (XRPD)” value ([3]; after DVS experiments) was “converted into Form G”, the “mass loss (DVS)” value ([3]; below 20% RH, 25° C.) was 8.6% and the “total mass uptake (DVS)” value ([3]; between 20% and 90% RH, 25° C.) was 0.6%.
For `Cc1ccc(-c2noc([C@H]3C[C@@H]3F)n2)cc1NC(=O)c1cnc2ccccn12` [Form A, N-(5-(5-((1R,2S)-2-fluorocyclopropyl)-1,2,4-oxadiazol-3-yl)-2-methylphenyl)imidazo[1,2-a]pyridine-3-carboxamide], the “XRPD pattern observed, 24 h” value ([4]; 2-MeTHF, aw 0.0378, 25° C.) was “Form A”, the “XRPD pattern observed, 6 Days” value ([4]; 2-MeTHF, aw 0.0378, 25° C.) was “Form A” and the “XRPD pattern observed, 24 h” value [4, 7] was “Form H^A”. For the same molecule, the “XRPD pattern observed, 6 Days” value [4, 7] was “Form H^A”, the “XRPD pattern observed, 24 h” value [4, 8] was “Form H^A” and the “XRPD pattern observed, 6 Days” value [4, 8] was “Form H^A”. The “XRPD pattern observed, 24 h” value [4, 9] was “Form H^A”, the “XRPD pattern observed, 6 Days” value [4, 9] was “Form H^A” and the “XRPD pattern observed, 6 Days” value ([4]; Acetone/Water, aw 0.7082, 25° C.) was “Form H^A”. The “XRPD pattern observed, 24 h” value [4, 10] was “Form A”, the “XRPD pattern observed, 6 Days” value [4, 10] was “Form A” and the “XRPD pattern observed, 24 h” value ([4]; EtOH/Water, aw 0.1580, 25° C.) was “Form H^A”. For the same molecule, the “XRPD pattern observed, 6 Days” value ([4]; EtOH/Water, aw 0.1580, 25° C.) was “Form H^A”, the “XRPD pattern observed, 24 h” value ([4]; EtOH/Water, aw 0.3377, 25° C.) was “Form H^A” and the “XRPD pattern observed, 6 Days” value ([4]; EtOH/Water, aw 0.3377, 25° C.) was “Form H^A”. The “XRPD pattern observed, 24 h” value ([4]; EtOH/Water, aw 0.4986, 25° C.) was “Form H^A”, the “XRPD pattern observed, 6 Days” value ([4]; EtOH/Water, aw 0.4986, 25° C.) was “Form H^A” and the “XRPD pattern observed, 24 h” value ([4]; EtOH/Water, aw 0.7600, 25° C.) was “Form H^A”. For the same molecule, the “XRPD pattern observed, 6 Days” value ([4]; EtOH/Water, aw 0.7600, 25° C.) was “Form H^A”, the “XRPD pattern observed, 24 h” value ([4]; EtOH/Water, aw 0.9005, 25° C.) was “Form A” and the “XRPD pattern observed, 24 h” value ([4]; MeCN/Water, aw 0.1060, 25° C.) was “Form H^A”. For the same molecule, the “XRPD pattern observed, 6 Days” value ([4]; MeCN/Water, aw 0.1060, 25° C.) was “Form H^A”, the “XRPD pattern observed, 24 h” value ([4]; MeCN/Water, aw 0.3664, 25° C.) was “Form H^A” and the “XRPD pattern observed, 6 Days” value ([4]; MeCN/Water, aw 0.3664, 25° C.) was “Form H^A”. For the same molecule, the “XRPD pattern observed, 24 h” value ([4]; MeCN/Water, aw 0.5573, 25° C.) was “Form H^A”, the “XRPD pattern observed, 6 Days” value ([4]; MeCN/Water, aw 0.5573, 25° C.) was “Form H^A” and the “XRPD pattern observed, 6 Days” value ([4]; MeCN/Water, aw 0.7300, 25° C.) was “Form H^A”. For the same molecule, the “XRPD pattern observed, 24 h” value ([4]; MeOH/Water, aw 0.0963, 25° C.) was “Form H^A”, the “XRPD pattern observed, 6 Days” value ([4]; MeOH/Water, aw 0.0963, 25° C.) was “Form H^A” and the “XRPD pattern observed, 24 h” value ([4]; MeOH/Water, aw 0.3242, 25° C.) was “Form H^A”. For the same molecule, the “XRPD pattern observed, 6 Days” value ([4]; MeOH/Water, aw 0.3242, 25° C.) was “Form H^A”, the “XRPD pattern observed, 24 h” value ([4]; MeOH/Water, aw 0.5145, 25° C.) was “Form H” and the “XRPD pattern observed, 6 Days” value ([4]; MeOH/Water, aw 0.5145, 25° C.) was “Form H^A”. The “XRPD pattern observed, 24 h” value ([4]; MeOH/Water, aw 0.6965, 25° C.) was “Form H”, the “XRPD pattern observed, 6 Days” value ([4]; MeOH/Water, aw 0.6965, 25° C.) was “Form H” and the “XRPD pattern observed, 24 h” value ([4]; MeOH/Water, aw 0.9294, 25° C.) was “Form A”. The “XRPD pattern observed, 6 Days” value ([4]; MeOH/Water, aw 0.9294, 25° C.) was “Form C”, the “XRPD pattern observed, 24 h” value [4, 11] was “Form H^A” and the “XRPD pattern observed, 6 Days” value [4, 11] was “Form H^A”. The “XRPD Pattern” value ([5]; NaOH (0.2M)) was “Form H^A and Form C”, the “XRPD Pattern” value ([5]; pH 1.2 (HCl—KCl)) was “HCl Salt Form” and the “XRPD Pattern” value ([5]; pH 4.5 (acetate)) was “Form F”. For the same molecule, the “XRPD Pattern” value ([5]; pH 6.8 (phosphate)) was “Form H^A”, the “XRPD Pattern” value ([5]; pH 8 (PBS)) was “Form H^A” and the “pH (Post-Buffer Addition)” value ([5]; slurry in NaOH (0.2M)) was 11.98. The “pH (24 h)” value ([5]; slurry in NaOH (0.2M)) was 11.91, the “pH (Post-Buffer Addition)” value ([5]; slurry in pH 1.2 (HCl—KCl)) was 1.20 and the “pH (24 h)” value ([5]; slurry in pH 1.2 (HCl—KCl)) was 1.19. The “pH (Post-Buffer Addition)” value ([5]; slurry in pH 4.5 (acetate)) was 4.63, the “pH (24 h)” value ([5]; slurry in pH 4.5 (acetate)) was 4.62 and the “pH (Post-Buffer Addition)” value ([5]; slurry in pH 6.8 (phosphate)) was 6.87. For the same molecule, the “pH (24 h)” value ([5]; slurry in pH 6.8 (phosphate)) was 6.88, the “pH (Post-Buffer Addition)” value ([5]; slurry in pH 8 (PBS)) was 8.04 and the “pH (24 h)” value ([5]; slurry in pH 8 (PBS)) was 8.17. The “XRPD at 2 h” value [2] was “transformed to Form C”, the “XRPD at 24 h” value [2] was “transformed to Form C” and the XRPD pattern observed ([6]; EtOH/Cyclohexane (50:50% v/v), aw 0.025, 24 h at 25° C.) was “Form A”. For the same molecule, the XRPD pattern observed ([6]; EtOH/Dodecane (50:50% v/v), aw 0.024, 24 h at 25° C.) was “Form A”, the XRPD pattern observed ([6]; EtOH/Hexane (50:50% v/v), aw 0.018, 24 h at 25° C.) was “Form A” and the XRPD pattern observed ([6]; EtOH/Methylcyclohexane (50:50% v/v), aw 0.019, 24 h at 25° C.) was “Form A”. For the same molecule, the XRPD pattern observed ([6]; EtOH/Octane (50:50% v/v), aw 0.019, 24 h at 25° C.) was “Form A”.
